Source: patent US11046716B2, “Beta-lactamase inhibitors” (priority 2015, dated 2021)
Read-outs that look alike come from different tables or passages of the source.

Columns and labels:
SHV-5 = target: T1, SHV-5 (Klebsiella pneumoniae, UniProt P0A3M1); test: β-lactamase enzyme inhibition assay, SHV-5 (cefotaxime substrate); type: biochemical
T1 construct: made in house; host or cells: E. coli BL21(DE3)
Method in brief: (§1)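 Untagged enzyme from E. coli BL21(DE3), purified by Capto S then Superdex 75; 15 min 37 °C preincubation with inhibitor; KPC-2 read with imipenem at 300 nm, SHV-5 with cefotaxime at 260 nm, OXA-1 with nitrocefin 100 μM final at 486 nm; 10 min kinetic read; IC50 vs uninhibited wells.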

[1] = tested on: K. pneumoniae expressing the class A carbapenemase KPC-2 and the class B carbapenemase VIM-4; test: Broth microdilution MIC assay with meropenem, K. pneumoniae KPC-2 and VIM-4; type: cell-based; settings: Fixed Mero (meropenem) 4 μg/mL; K. p. A-1797 KPC-2 VIM-4
Method in brief: (§2)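 In cation-adjusted Mueller Hinton broth, bacteria pre-grown 3-5 hours were exposed to test compound (2-fold, 16–0.125 μg/mL) plus a static 4 μg/ml β-lactam. A panel of control β-lactams was run alongside, and the compound MIC was judged by eye following 16-20 hours at 37° C.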

[2] = tested on: K. pneumoniae expressing the Class A carbapenemase KPC-2; test: Broth microdilution MIC assay with meropenem, K. pneumoniae KPC-2; type: cell-based; settings: Fixed Mero (meropenem) 4 μg/mL; K. p. 156319 KPC-3
Method in brief: as §2

AmpC = target: T2, AmpC (Enterobacter cloacae, UniProt P05364); test: β-lactamase enzyme inhibition assay, p99 AmpC (nitrocefin substrate); type: biochemical
T2 construct: made in house; host or cells: E. coli BL21(DE3)
Method in brief: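 Untagged enzyme from E. coli BL21(DE3), purified by Capto S then Superdex 75; 15 min 37 °C preincubation with inhibitor; 10 min kinetic read; IC50 vs uninhibited wells.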

[3] = tested on: E. cloacae expressing the Class C P99; test: Broth microdilution MIC assay with ceftazidime, E. cloacae P99; type: cell-based; settings: Fixed CAZ (ceftazidime) 4 μg/mL; E. cl. 144200 p99 AmpC
Method in brief: as §2

[4] = tested on: E. coli expressing the Class A Extended Spectrum Beta-Lactamase (ESBL) CTX-M-15; test: Broth microdilution MIC assay with ceftazidime, E. coli CTX-M-15; type: cell-based; settings: Fixed CAZ (ceftazidime) 4 μg/mL; E. coli ESBL4 CTX-M-15
Method in brief: as §2

KPC-2 = target: T3, KPC-2 (Klebsiella pneumoniae, UniProt Q9F663); test: β-lactamase enzyme inhibition assay, KPC-2 (imipenem substrate); type: biochemical
T3 construct: made in house; host or cells: E. coli BL21(DE3)
Method in brief: as §1

[5] = tested on: P. aeruginosa expressing the Class B carbapenemase VIM-2; test: Broth microdilution MIC assay with meropenem, P. aeruginosa VIM-2; type: cell-based; settings: Fixed Mero (meropenem) 4 μg/mL; P. aerug. 2775 VIM-2
Method in brief: as §2

OXA-48 = OXA-48 (UniProt Q6XEC0); test: β-lactamase enzyme inhibition assay, Class D oxacillinase; type: biochemical; settings: read-out: OXA-48
[6] = tested on: K. pneumoniae producing the Class D carbapenemase OXA-48; test: Broth microdilution MIC assay with meropenem, K. pneumoniae OXA-48; type: cell-based; settings: Fixed Mero (meropenem) 4 μg/mL; K. p. 11978 OXA-48
Method in brief: as §2

VIM-2 = target: T4, VIM-2 (Escherichia coli, UniProt Q5U7L7); test: β-lactamase enzyme inhibition assay, VIM-2 (nitrocefin substrate); type: biochemical
T4 construct: made in house; host or cells: E. coli BL21(DE3)
Method in brief: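 Metallo-β-lactamase VIM-2 activity was tracked spectrophotometrically at 486 nm with 100 μM nitrocefin over 10 min, following 15 min preincubation with compound at 37 °C; inhibition was calculated per concentration.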

[7] = Class A, imipenem substrate, 300 nm, read-out: KPC-2
[8] = Class B, nitrocefin substrate, 486 nm, read-out: VIM-2

T3 sequence (Q9F663 25-293, looked up): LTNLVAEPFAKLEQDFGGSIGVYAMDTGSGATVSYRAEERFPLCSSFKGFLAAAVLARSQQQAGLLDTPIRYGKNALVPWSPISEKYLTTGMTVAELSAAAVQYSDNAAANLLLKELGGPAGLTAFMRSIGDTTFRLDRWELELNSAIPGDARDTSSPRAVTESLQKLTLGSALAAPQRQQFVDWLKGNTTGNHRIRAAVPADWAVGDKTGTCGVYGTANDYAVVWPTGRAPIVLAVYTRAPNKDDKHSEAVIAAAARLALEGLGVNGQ
T2 sequence (P05364 21-381): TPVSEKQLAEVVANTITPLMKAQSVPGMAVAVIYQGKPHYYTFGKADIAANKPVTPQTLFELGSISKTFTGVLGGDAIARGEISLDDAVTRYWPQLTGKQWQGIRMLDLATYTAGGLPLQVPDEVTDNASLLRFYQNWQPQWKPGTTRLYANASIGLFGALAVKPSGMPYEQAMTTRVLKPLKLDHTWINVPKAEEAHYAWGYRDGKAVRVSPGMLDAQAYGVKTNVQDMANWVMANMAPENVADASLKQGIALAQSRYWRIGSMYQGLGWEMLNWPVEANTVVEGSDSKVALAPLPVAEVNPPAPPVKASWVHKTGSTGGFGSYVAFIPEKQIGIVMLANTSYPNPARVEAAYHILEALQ
T1 sequence (P0A3M1 22-286): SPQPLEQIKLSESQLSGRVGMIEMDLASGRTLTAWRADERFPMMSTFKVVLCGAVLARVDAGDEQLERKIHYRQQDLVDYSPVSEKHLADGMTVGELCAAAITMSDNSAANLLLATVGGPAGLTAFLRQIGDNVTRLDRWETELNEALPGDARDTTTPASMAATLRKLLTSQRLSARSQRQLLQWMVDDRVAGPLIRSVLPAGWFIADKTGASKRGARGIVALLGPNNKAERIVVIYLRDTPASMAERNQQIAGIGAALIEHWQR

SMILES | IC50 (SHV-5) | MIC (μg/mL) of Exemplary Compounds in presence of fixed β-lactams: K. p. A-1797 KPC-2 VIM-4 [1] | MIC (μg/mL) of Exemplary Compounds in presence of fixed β-lactams: K. p. 156319 KPC-3 [2] | IC50 (AmpC) | MIC (μg/mL) of Exemplary Compounds in presence of fixed β-lactams: E. cl. 144200 p99 AmpC [3] | MIC (μg/mL) of Exemplary Compounds in presence of fixed β-lactams: E. coli ESBL4 CTX-M-15 [4] | IC50 (KPC-2; [7]) | MIC (μg/mL) of Exemplary Compounds in presence of fixed β-lactams: P. aerug. 2775 VIM-2 [5] | IC50 (OXA-48) | MIC (μg/mL) of Exemplary Compounds in presence of fixed β-lactams: K. p. 11978 OXA-48 [6] | IC50 (VIM-2; [8]) | IC50 (KPC-2) | IC50 (VIM-2)
NCc1cnnn1CC(=O)N[C@H]1Cc2cccc(C(=O)O)c2OB1O [Example 13, (R)-3-(2-(5-(aminomethyl)-1H-1,2,3-triazol-1-yl)acetamido)-2-hydroxy-3,4-dihydro-2H-benzo[e][1,2]oxaborinine-8-carboxylic acid] | 100 to 1000 nM | B (B represents an MIC between 1 and 16 μg/mL inclusive) | B (B represents an MIC between 1 and 16 μg/mL inclusive) | < 100 nM | C (C represents an MIC of <1 μg/mL) | B (B represents an MIC between 1 and 16 μg/mL inclusive) | < 100 nM | B (B represents an MIC between 1 and 16 μg/mL inclusive) | 100 to 1000 nM | B (B represents an MIC between 1 and 16 μg/mL inclusive) | 100 to 1000 nM |  | 
CC(C)(C(=O)N[C@H]1Cc2cccc(C(=O)O)c2OB1O)n1cc(CNCCN)nn1 [Example 60, (R)-3-(2-(4-(((2-aminoethyl)amino)methyl)-1H-1,2,3-triazol-1-yl)-2-methylpropanamido)-2-hydroxy-3,4-dihydro-2H-benzo[e][1,2]oxaborinine-8-carboxylic acid] | < 100 nM | C (C represents an MIC of <1 μg/mL) | B (B represents an MIC between 1 and 16 μg/mL inclusive) | < 100 nM | C (C represents an MIC of <1 μg/mL) | B (B represents an MIC between 1 and 16 μg/mL inclusive) | 100 to 1000 nM | C (C represents an MIC of <1 μg/mL) | < 100 nM | B (B represents an MIC between 1 and 16 μg/mL inclusive) | < 100 nM |  | 
NCCn1cnc(C(=O)N[C@H]2Cc3cccc(C(=O)O)c3OB2O)c1 [Example 72, (R)-3-(1-(2-aminoethyl)-1H-imidazole-4-carboxamido)-2-hydroxy-3,4-dihydro-2H-benzo[e][1,2]oxaborinine-8-carboxylic acid] | < 100 nM | B (B represents an MIC between 1 and 16 μg/mL inclusive) | C (C represents an MIC of <1 μg/mL) | < 100 nM | C (C represents an MIC of <1 μg/mL) | C (C represents an MIC of <1 μg/mL) | < 100 nM | B (B represents an MIC between 1 and 16 μg/mL inclusive) | 100 to 1000 nM | B (B represents an MIC between 1 and 16 μg/mL inclusive) | 100 to 1000 nM |  | 
NCc1cn(C[C@H](N)C(=O)N[C@H]2Cc3cccc(C(=O)O)c3OB2O)nn1 [Example 114, (R)-3-((S)-2-amino-3-(4-(aminomethyl)-1H-1,2,3-triazol-1-yl)propanamido)-2-hydroxy-3,4-dihydro-2H-benzo[e][1,2]oxaborinine-8-carboxylic acid] | 10000 to 100000 nM | B (B represents an MIC between 1 and 16 μg/mL inclusive) | C (C represents an MIC of <1 μg/mL) | < 100 nM | C (C represents an MIC of <1 μg/mL) | C (C represents an MIC of <1 μg/mL) | 100 to 1000 nM | C (C represents an MIC of <1 μg/mL) | 1000 to 10000 nM | B (B represents an MIC between 1 and 16 μg/mL inclusive) | 1000 to 10000 nM |  | 
NCCc1cnnn1CC(=O)N[C@H]1Cc2cccc(C(=O)O)c2OB1O [Example 121, (R)-3-(2-(5-(2-aminoethyl)-1H-1,2,3-triazol-1-yl)acetamido)-2-hydroxy-3,4-dihydro-2H-benzo[e][1,2]oxaborinine-8-carboxylic acid] | < 100 nM | B (B represents an MIC between 1 and 16 μg/mL inclusive) | C (C represents an MIC of <1 μg/mL) | < 100 nM | C (C represents an MIC of <1 μg/mL) | C (C represents an MIC of <1 μg/mL) |  | C (C represents an MIC of <1 μg/mL) | < 100 nM | B (B represents an MIC between 1 and 16 μg/mL inclusive) |  | < 100 nM | 100 to 1000 nM
NCCSCc1cn(CC(=O)N[C@H]2Cc3cccc(C(=O)O)c3OB2O)nn1 [Example 63, (R)-3-(2-(4-(((2-aminoethyl)thio)methyl)-1H-1,2,3-triazol-1-yl)acetamido)-2-hydroxy-3,4-dihydro-2H-benzo[e][1,2]oxaborinine-8-carboxylic acid] | < 100 nM | B (B represents an MIC between 1 and 16 μg/mL inclusive) | C (C represents an MIC of <1 μg/mL) | < 100 nM | C (C represents an MIC of <1 μg/mL) | C (C represents an MIC of <1 μg/mL) | < 100 nM | C (C represents an MIC of <1 μg/mL) | 100 to 1000 nM | B (B represents an MIC between 1 and 16 μg/mL inclusive) | 100 to 1000 nM |  | 
O=C(Cc1cn2ccsc2n1)N[C@H]1Cc2cccc(C(=O)O)c2OB1O [Example 78, (R)-2-hydroxy-3-(2-(imidazo[2,1-b]thiazol-6-yl)acetamido)-3,4-dihydro-2H-benzo[e][1,2]oxaborinine-8-carboxylic acid] | < 100 nM | A (A represents an MIC>16 μg/mL) | B (B represents an MIC between 1 and 16 μg/mL inclusive) | < 100 nM | C (C represents an MIC of <1 μg/mL) | C (C represents an MIC of <1 μg/mL) | < 100 nM | B (B represents an MIC between 1 and 16 μg/mL inclusive) | < 100 nM | B (B represents an MIC between 1 and 16 μg/mL inclusive) | 100 to 1000 nM |  | 
